# Measurements reported in the supplement of paper PMC8149375.
# Assays:
# Details in all cases: treatment: drug alone; 5 days
# 769-P [1] = assay: GI50, drug alone; higher = less potent
# Method: (§1)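 Primary HTS: 8 RCC cell lines treated with 8 doses (up to 10 uM) of each library drug alone for 5 days; viability read by CellTiter-Glo and normalised to DMSO. GI50 was fitted with XLfit (4-parameter), AUC is the area under the dose-response curve, and minimum viability is the lowest fraction of DMSO viability across doses.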
# 786-O [2] = assay: GI50, drug alone; higher = less potent
# Method: as §1
# A498 [3] = assay: GI50, drug alone; higher = less potent
# Method: as §1
# ACHN [4] = assay: GI50, drug alone; higher = less potent
# Method: as §1
# CAKI-1 [5] = assay: GI50, drug alone; higher = less potent
# Method: as §1
# SN12C [6] = assay: GI50, drug alone; higher = less potent
# Method: as §1
# TK-10 [7] = assay: GI50, drug alone; higher = less potent
# Method: as §1
# UO-31 [8] = assay: GI50, drug alone; higher = less potent
# Method: as §1
# 769-P [9] = assay: minimum viability across doses, drug alone, relative to DMSO (fraction); higher = less growth inhibition
# Method: as §1
# 786-O [10] = assay: as above
# Method: as §1
# A498 [11] = assay: as above
# Method: as §1
# ACHN [12] = assay: as above
# Method: as §1
# CAKI-1 [13] = assay: as above
# Method: as §1
# SN12C [14] = assay: as above
# Method: as §1
# TK-10 [15] = assay: as above
# Method: as §1
# UO-31 [16] = assay: as above
# Method: as §1
# 769-P [17] = assay: AUC of dose-response viability curve, drug alone (arbitrary (AUC of normalised viability)); higher = less growth inhibition
# Method: as §1
# 786-O [18] = assay: as above
# Method: as §1
# A498 [19] = assay: as above
# Method: as §1
# ACHN [20] = assay: as above
# Method: as §1
# CAKI-1 [21] = assay: as above
# Method: as §1
# SN12C [22] = assay: as above
# Method: as §1
# TK-10 [23] = assay: as above
# Method: as §1
# UO-31 [24] = assay: as above
# Method: as §1
"GI50, drug alone (786-O [2])","GI50, drug alone (ACHN [4])",Structure (SMILES),"GI50, drug alone (769-P [1])","GI50, drug alone (A498 [3])","GI50, drug alone (CAKI-1 [5])","GI50, drug alone (SN12C [6])","GI50, drug alone (TK-10 [7])","GI50, drug alone (UO-31 [8])",minimum viability across doses (769-P [9]),minimum viability across doses (786-O [10]),minimum viability across doses (A498 [11]),minimum viability across doses (ACHN [12]),minimum viability across doses (CAKI-1 [13]),minimum viability across doses (SN12C [14]),minimum viability across doses (TK-10 [15]),minimum viability across doses (UO-31 [16]),AUC of dose-response viability curve (769-P [17]),AUC of dose-response viability curve (786-O [18]),AUC of dose-response viability curve (A498 [19]),AUC of dose-response viability curve (ACHN [20]),AUC of dose-response viability curve (CAKI-1 [21]),AUC of dose-response viability curve (SN12C [22]),AUC of dose-response viability curve (TK-10 [23]),AUC of dose-response viability curve (UO-31 [24])
0.0999 µM,2.94 µM,O=C(NCCCNc1nc(Nc2cccc(NC(=O)N3CCCC3)c2)ncc1I)c1cccs1 [BX-795],5.63 µM,> 10 µM,2.67 µM,7.51 µM,3.93 µM,5.04 µM,0.149,0.00247,0.917,0.217,0.17,0.458,0.218,0.0155,3.03,1.64,4.14,2.83,2.66,2.8,2.59,4.13
0.194 µM,> 10 µM,CCN(CCO)CCCOc1ccc2c(Nc3cc(CC(=O)Nc4cccc(F)c4)n[nH]3)ncnc2c1 [Barasertib (AZD1152-HQPA)],4.36 µM,> 10 µM,2.08 µM,> 10 µM,> 10 µM,> 10 µM,0.408,0.0818,1.04,0.583,0.449,0.74,0.703,0.767,2.81,1.76,4.38,2.71,2.49,3.06,2.94,3.35
2.51 µM,0.429 µM,COc1cc(Nc2c(C#N)cnc3cc(OCCCN4CCN(C)CC4)c(OC)cc23)c(Cl)cc1Cl [Bosutinib (SKI-606)],1.65 µM,5.05 µM,0.849 µM,1.14 µM,1.21 µM,> 10 µM,0.111,0.0159,0.233,0.0885,0.0478,0.126,0.0431,0.00817,2.68,2.94,3.08,2.16,2.38,2.34,2.61,2.35
> 10 µM,0.532 µM,C=CC(=O)Nc1cc2c(Nc3ccc(F)c(Cl)c3)ncnc2cc1OCCCN1CCOCC1 [CI-1033 (Canertinib)],1 µM,8.55 µM,5.53 µM,5.22 µM,0.626 µM,> 10 µM,0.344,0.487,0.141,0.158,0.382,0.104,0.156,0.557,2.24,2.52,3.62,2.09,2.8,2.52,2.11,3.48

# Second part, the compound before the results:
Structure (SMILES),"GI50, drug alone (786-O [2])","GI50, drug alone (ACHN [4])","GI50, drug alone (769-P [1])","GI50, drug alone (A498 [3])","GI50, drug alone (CAKI-1 [5])","GI50, drug alone (SN12C [6])","GI50, drug alone (TK-10 [7])","GI50, drug alone (UO-31 [8])",minimum viability across doses (769-P [9]),minimum viability across doses (786-O [10]),minimum viability across doses (A498 [11]),minimum viability across doses (ACHN [12]),minimum viability across doses (CAKI-1 [13]),minimum viability across doses (SN12C [14]),minimum viability across doses (TK-10 [15]),minimum viability across doses (UO-31 [16]),AUC of dose-response viability curve (769-P [17]),AUC of dose-response viability curve (786-O [18]),AUC of dose-response viability curve (A498 [19]),AUC of dose-response viability curve (ACHN [20]),AUC of dose-response viability curve (CAKI-1 [21]),AUC of dose-response viability curve (SN12C [22]),AUC of dose-response viability curve (TK-10 [23]),AUC of dose-response viability curve (UO-31 [24])
O=C(Nc1cccc(Nc2ncc(Br)c(NCCc3cnc[nH]3)n2)c1)N1CCCC1 [BX-912],2.04 µM,4.2 µM,> 10 µM,> 10 µM,2.07 µM,5.44 µM,5.33 µM,> 10 µM,0.587,0.0508,0.742,0.251,0.139,0.266,0.292,0.961,3.15,2.16,4.04,3.08,2.59,2.94,2.81,3.91
Cc1nc(NC(=O)N2CCC[C@H]2C(N)=O)sc1-c1ccnc(C(C)(C)C(F)(F)F)c1 [BYL719],1.65 µM,8.55 µM,> 10 µM,> 10 µM,> 10 µM,> 10 µM,4.8 µM,> 10 µM,0.762,0.155,0.982,0.396,0.502,0.638,0.404,0.927,3.47,1.81,4.11,2.83,3.13,2.83,2.54,3.94
CC[C@H](Nc1ncnc2[nH]cnc12)c1nc2cccc(F)c2c(=O)n1-c1ccccc1 [CAL-101 (GS-1101)],> 10 µM,> 10 µM,> 10 µM,> 10 µM,> 10 µM,> 10 µM,> 10 µM,> 10 µM,0.786,0.613,0.979,0.64,0.633,0.777,0.701,0.926,3.45,3.15,4.09,3.17,3.06,3.2,3.12,3.87
O=c1[nH]c2ccc(Cl)cc2c(N[C@@H]2CN3CCC2CC3)c1-c1nc2ccccc2[nH]1 [CHIR-124],0.0365 µM,0.0403 µM,0.129 µM,0.498 µM,0.165 µM,1.19 µM,0.129 µM,0.0832 µM,0.017,0.0053,0.0252,0.0184,0.0814,0.0133,0.168,0.0103,1.61,0.832,2.43,1.15,1.73,2.32,1.68,1.4
